Where two headings read alike, the source gives them in different places.
Legend:
in vivo = settings: BALB/c, mouse, sc, 500 mg/kg; for AUC(0-t): AUClast; for Kp: Tissue/Plasma Ratio
Experimental: The vehicle used for dissolution of test compounds was 0.9% Normal Saline. […] The formulations were prepared on the day of the study. The test compounds were administered at 100 mg/kg for the IV study and 500 mg/kg for the SC study. For the tissue distribution study, again 500 mg/kg was administered by the SC route.
Post dose, blood, or the relevant tissue in the case of the distribution study was collected at time points of 2 min, 5 min, 15 min, 30 min, 1 h, 2 h, 4 h, 24 h, 36 h and 48 h. From each mouse terminal blood samples were collected by cardiac puncture under isoflurane anaesthesia. The blood was collected in 2 ml Eppendorf tubes containing 0.020 ml of 10% K2EDTA, mixed gently and placed in ice before centrifugation. Plasma was harvested and stored at −80 °C. […] The PK analysis was performed using Non-compartmental methods in Phoenix WinNonlin 6.4 [Pharsight, Certara]. The mean concentration-time data were used for computing the PK parameters. The AUC was computed using the linear up-log down method. The following NCA parameters were estimated for the IV PK: Systemic Clearance [CL], Vss [Volume of distribution at steady state], first order elimination rate constant [ke], terminal half-life [t1/2], AUC0-t, AUC0-∞. For the SC PK study: Cmax, tmax, ke, t1/2, AUC0-t, AUC0-∞ and the absolute SC bioavailability [F] was estimated using the equation: F(%)=(AUCsc/AUCiv)∗(Doseiv/Dosesc)∗100

Npc1^nmf164 mice [1] = experiment: Early intervention efficacy study (treatment from 2 weeks of age); assay type: in vivo; settings: for Mean bodyweight: Npc1^nmf164 mice, 800 mg/kg SC weekly
Experimental: Control group mice received plain PBS (sham, group).
The body weight was recorded weekly and a score ranging from 0 to 5 was assigned to each mouse (Table 3) as previously performed. The motor co-ordination phenotype was assessed by the balance beam test every two weeks as previously described. Briefly, the mouse was placed perpendicularly at the center of a horizontal round beam (covered with paper tape, outer diameter 2 cm, length 1 m, divided into 10 sections and placed 50 cm above a padded surface) and the number of beam sections crossed in a 180 s time interval was recorded. Although the test relies on muscle strength and limb tone, it is well validated for the assessment of fine motor coordination and balance. […] The end-point of data collection was established as mouse weight approaching 13 g[40].

Npc1^nmf164 mice [2] = system: Npc1^nmf164 mice; parameters: method as in PMID 26888431; settings: HPβCD full dose 4000 mg/kg; cited from earlier work
[3] = cited from earlier work
[4] = system: Calbindin in Purkinje cells of Npc1^nmf164 mice; experiment: Calbindin detection by immunofluorescence on cerebellar sections; assay type: in vivo; settings: 10 weeks-old Npc1^nmf164 mice, 800 mg/kg SC weekly from 2 weeks
Experimental: Sham-treated control mice were injected with plain PBS.
Brains were quickly dissected, fixed overnight at 4 °C in 4% PFA and processed as previously described[52]. Briefly, fixed brains were dehydrated by incubation in 15–30% sucrose in PBS, embedded in FSC 22 Clear Frozen Section Compound (Leica Biosystems, Milano, Italy) and serially sectioned (slice thickness 10 µm) using a cryostat (Leica CM 1900). Sagittal sections were mounted on X-tra Adhesive glass slides (Leica biosystems). Sections were processed for immunofluorescence using a mouse monoclonal Calbindin antibody (Anti-Calbindin D28K, Sigma, Milan, Italy; 1:500 dilution in PBS) as routinely performed in our lab. A permeabilization step performed by incubating sections in 0.1% Triton X-100 in PBS for 10 min was followed by a 3 h incubation in a blocking solution containing 5% goat serum, 1% BSA, 0.2% Triton X-100 in PBS. Sections were then incubated over night with a 1:500 primary antibody dilution in PBS and, after several washes with PBS, with a TRITC-conjugated anti-mouse secondary antibody (Zymed-Thermo Fisher Scientific, Milan, Italy).

[5] = Pharmacokinetics after single subcutaneous dose (500 mg/kg); assay type: in vivo, BALB/c mice; settings: BALB/c, mouse, plasma
Experimental: (§1) LC/MS/MS (HPβCD) and HPLC-UV (ORX-301) were used for analysis in the studies. The bioanalytical method for HPβCD was linear, accurate, and precise in the concentration range of 5.4 and 500 µg/ml, with an LLOQ = 5.4 µg/ml, and met all the acceptance criteria.
(§2) Pharmacokinetic analysis and MTD studies were carried out in BALB/c mice purchased from Taconic Biosciences. Protocols and procedures of these studies were approved by the Institutional Animal Ethics Committee based on CPCSEA (India) guidelines.
(§3) Plasma was harvested and stored at −80 °C.

Npc1^nih/nih mice = settings: cited from earlier work
[6] = Pharmacokinetics after single intravenous dose (100 mg/kg); assay type: in vivo, BALB/c mice; settings: BALB/c, mouse
Experimental: as §1, §2, §3

[7] = 800 mg/kg SC weekly from 2 weeks of age

SMILES: CC(O)COC[C@H]1O[C@@H]2O[C@H]3[C@H](O)[C@@H](O)[C@@H](O[C@H]4[C@H](O)[C@@H](O)[C@@H](O[C@H]5[C@H](O)[C@@H](O)[C@@H](O[C@H]6[C@H](O)[C@@H](O)[C@@H](O[C@H]7[C@H](O)[C@@H](O)[C@@H](O[C@H]8[C@H](O)[C@@H](O)[C@@H](O[C@H]1[C@H](O)[C@H]2O)O[C@@H]8COCC(C)O)O[C@@H]7COCC(C)O)O[C@@H]6COCC(C)O)O[C@@H]5COCC(C)O)O[C@@H]4COCC(C)O)O[C@@H]3COCC(C)O (stereo partly drawn) [HPβCD, 2-hydroxypropyl-β-cyclodextrin]
- AUC(0-t) (in vivo; kidney): 2950 µg·h/mL
- AUC(0-t) (in vivo; liver): 127 µg·h/mL
- AUC(0-t) (in vivo; spleen): 828 µg·h/mL
- Kp (in vivo; kidney): 0.63
- Kp (in vivo; liver): 0.03
- Kp (in vivo; spleen): 0.18
- body weight loss progression (Npc1^nmf164 mice [1]; [7]): less severe and slower progressing weight loss
- improvement of performance in the balance beam test (Npc1^nmf164 mice [1]; [7]): only temporarily observed up to 9-weeks of age
- mean lifespan (Npc1^nmf164 mice [1]; [7]): 150 ± 2.55 days
- improvement in mean survival (Npc1^nmf164 mice [1]; 800 mg/kg SC weekly from 2 weeks of age, vs sham-treated): 35%
- Mean bodyweight (Npc1^nmf164 mice [1]; post-natal week 2): 7.43 ± 0.30 g
- Mean bodyweight (Npc1^nmf164 mice [1]; post-natal week 3): 10.37 ± 0.33 g
- Mean bodyweight (Npc1^nmf164 mice [1]; post-natal week 4): 13.31 ± 0.53 g
- Mean bodyweight (Npc1^nmf164 mice [1]; post-natal week 5): 17.24 ± 0.65 g
- Mean bodyweight (Npc1^nmf164 mice [1]; post-natal week 6): 18.58 ± 0.75 g
- Mean bodyweight (Npc1^nmf164 mice [1]; post-natal week 7): 20.25 ± 0.84 g
- Mean bodyweight (Npc1^nmf164 mice [1]; post-natal week 8): 20.85 ± 0.94 g
- Mean bodyweight (Npc1^nmf164 mice [1]; post-natal week 9): 20.55 ± 1.03 g
- Mean bodyweight (Npc1^nmf164 mice [1]; post-natal week 10): 19.92 ± 0.81 g
- mean lifespan (Npc1^nmf164 mice [2]): 170 to 180 days
- fraction that reaches the brain upon systemic administration ([3]; ref 25, 53): 0.2–1.5%
- fraction that reaches the brain upon systemic administration ([3]; ref 25): less than 0.2%
- Calbindin staining of Purkinje cells [4]: markedly reduced Calbindin staining
- bioavailability ([5]; subcutaneous 500 mg/kg vs intravenous 100 mg/kg, read-out: Absolute Bioavailability): 42%
- AUC(0-inf) ([5]; sc, subcutaneous 500 mg/kg): 4140 µg·h/mL
- AUC(0-t) ([5]; sc, subcutaneous 500 mg/kg): 4020 µg·h/mL
- Cmax ([5]; sc, subcutaneous 500 mg/kg): 4610 µg/mL
- Tmax ([5]; sc, subcutaneous 500 mg/kg): 4.98 min
- half-life ([5]; sc, subcutaneous 500 mg/kg): 1000 min
- effect on lifespan (Npc1^nih/nih mice; single injection at day 49, Npc1^nih/nih mice): did not significantly improve the lifespan
- dosage required for improvement of survival (Npc1^nih/nih mice; weekly injections started at day 42, Npc1^nih/nih mice): at least 1000 mg/kg
- concentration at 24 h ([6]; in vivo, iv, 100 mg/kg): 4950 ng/mL
- tlast ([6]; in vivo, iv, 100 mg/kg): 24 h
- bioavailability ([6]; plasma, 500 mg/kg, printed under the Intravenous columns, read-out: Absolute Bioavailability): 42%
- half-life ([6]; plasma, iv, 100 mg/kg, intravenous 100 mg/kg): ~840 min
- clearance ([6]; plasma, single IV dose 100 mg/kg): 0.85 mL/min/kg
- Vd ([6]; plasma, single IV dose 100 mg/kg, read-out: Vss): 0.18 L/kg
- AUC(0-inf) ([6]; intravenous 100 mg/kg, plasma): 1960 µg·h/mL
- AUC(0-t) ([6]; intravenous 100 mg/kg, plasma): 1860 µg·h/mL
- Tmax ([6]; intravenous 100 mg/kg, plasma): 4.98 min

From article PMC6015065, “Linear Cyclodextrin Polymer Prodrugs as Novel Therapeutics for Niemann-Pick Type C1 Disorder” (Scientific Reports, 2018)
